Tests used:
Assay in all cases: drug sensitivity score (DSS3, normalised partial AUC of % inhibition dose-response) (DSS (score)); higher = more sensitive (stronger inhibition of viability); extreme values may be limits of the assay
FMOC22 = patient-derived mucinous ovarian cancer cells; conditions: 72 h; library: FO5A; assay format: 2D, 384-well, CellTiter-Glo
How it was run: (§1)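 Cells were dispensed onto 384-well flat clear-bottom plates already holding compounds at five concentrations over a 10,000-fold range, using patient-derived ovarian cancer cells at passage under 10. Incubation lasted 72 h at 37 °C in 5% CO2, after which CellTiter-Glo viability data were processed in Breeze. Higher drug sensitivity scores, each a partial area under the percent-inhibition dose-response curve divided by the log of the upper asymptote, mean more sensitive cells.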

FMOC25_2 = patient-derived low-grade serous ovarian cancer cells; conditions: 72 h; library: FO5A; assay format: 2D, 384-well, CellTiter-Glo
How it was run: as §1

FMOC04 = patient-derived high-grade serous ovarian cancer cells; conditions: 72 h; library: FO5A; assay format: 2D, 384-well, CellTiter-Glo
How it was run: as §1

FMOC02_1 = patient-derived low-grade serous ovarian cancer cells; conditions: 72 h; library: FO5A; assay format: 2D, 384-well, CellTiter-Glo
How it was run: as §1

FMOC28 = patient-derived low-grade serous ovarian cancer cells; conditions: 72 h; library: FO5A; assay format: 2D, 384-well, CellTiter-Glo
How it was run: as §1

FMOC25_1 = patient-derived low-grade serous ovarian cancer cells; conditions: 72 h; library: FO4B; assay format: 2D, 384-well, CellTiter-Glo
How it was run: as §1

FMOC17 = patient-derived low-grade serous ovarian cancer cells; conditions: 72 h; library: FO5A; assay format: 2D, 384-well, CellTiter-Glo
How it was run: as §1

FMOC03 = patient-derived mucinous ovarian cancer cells; conditions: 72 h; library: FO5A; assay format: 2D, 384-well, CellTiter-Glo
How it was run: as §1

FMOC27 = patient-derived low-grade serous ovarian cancer cells; conditions: 72 h; library: FO5A; assay format: 2D, 384-well, CellTiter-Glo
How it was run: as §1

FMOC11 = patient-derived high-grade serous ovarian cancer cells; conditions: 72 h; library: FO5A; assay format: 2D, 384-well, CellTiter-Glo
How it was run: as §1

FMOC24 = patient-derived high-grade serous ovarian cancer cells; conditions: 72 h; library: FO5A; assay format: 2D, 384-well, CellTiter-Glo
How it was run: as §1

FMOC14 = patient-derived high-grade serous ovarian cancer cells; conditions: 72 h; library: FO5A; assay format: 2D, 384-well, CellTiter-Glo
How it was run: as §1

FMOC06 = patient-derived mucinous ovarian cancer cells; conditions: 72 h; library: FO5A; assay format: 2D, 384-well, CellTiter-Glo
How it was run: as §1

FMOC09 = patient-derived high-grade serous ovarian cancer cells; conditions: 72 h; library: FO5A; assay format: 2D, 384-well, CellTiter-Glo
How it was run: as §1

FMOC02_2 = patient-derived low-grade serous ovarian cancer cells; conditions: 72 h; library: FO5A; assay format: 2D, 384-well, CellTiter-Glo
How it was run: as §1

FMOC02_3 = patient-derived low-grade serous ovarian cancer cells; conditions: 72 h; library: FO5A; assay format: 2D, 384-well, CellTiter-Glo
How it was run: as §1

SMILES	drug sensitivity score (FMOC22)	drug sensitivity score (FMOC25_2)	drug sensitivity score (FMOC04)	drug sensitivity score (FMOC02_1)	drug sensitivity score (FMOC28)	drug sensitivity score (FMOC25_1)	drug sensitivity score (FMOC17)	drug sensitivity score (FMOC03)	drug sensitivity score (FMOC27)	drug sensitivity score (FMOC11)	drug sensitivity score (FMOC24)	drug sensitivity score (FMOC14)	drug sensitivity score (FMOC06)	drug sensitivity score (FMOC09)	drug sensitivity score (FMOC02_2)	drug sensitivity score (FMOC02_3)
C[C@@H]1C[C@H]2[C@@H]3CCC4=CC(=O)C=C[C@]4(C)[C@@]3(F)[C@@H](O)C[C@]2(C)[C@@]1(O)C(=O)CO [Dexamethasone]	0	0	0	0	0	0	1.3	0	0	0	0	0	0	0	0	0
Cc1ccc(-n2nc(C(C)(C)C)cc2NC(=O)Nc2ccc(OCCN3CCOCC3)c3ccccc23)cc1 [Doramapimod]	0.3	0.1	0	0.1	7.1	0.8	0.4	0	0.1	2.4	1.85	0	0	0.8	0	0
CN1CCN(c2ccc3nc(-c4c(N)c5c(F)cccc5[nH]c4=O)[nH]c3c2)CC1 [Dovitinib]	0	0.4	0	0.6	1	0.2	0	0	0	0.1	1.6	0	0	0	1.4	1.1
C[C@H](Nc1ncnc2nc[nH]c12)c1cc2cccc(Cl)c2c(=O)n1-c1ccccc1 [Duvelisib]	0	0	0	0	0	0	0.5	0	0.1	0.7	0.65	0	1	0	0.1	0
Cc1cc(C)c(CNC(=O)c2cc(-c3ccc(CN4CCOCC4)cc3)cc3c2cnn3C2CCCC2)c(=O)[nH]1 [EPZ-5687]	0.6	1.8	0.05	0.4	5.1	0	0.1	0.6	3.1	0	1.7	0	0	0	0.9	1.5
COC(=O)N[C@@H](C)CNc1nccc(-c2cn(C(C)C)nc2-c2cc(Cl)cc(NS(C)(=O)=O)c2F)n1 [Encorafenib]	0	3.3	0	4.2	0	0.2	0	0	0	0	0	0	0	0	0	0.9
c1cn2cc(-c3ccc4cn[nH]c4c3)nc(Nc3ccc(N4CCOCC4)cc3)c2n1 [Entospletinib]	0	0	0	4.3	0	0.1	1.8	0	0	0.7	0	0	0	0	3.2	0
CNC(=O)c1ccc(N2C(=S)N(c3ccc(C#N)c(C(F)(F)F)c3)C(=O)C2(C)C)cc1F [Enzalutamide]	0	0	0	0	0	0	0	0	0.1	0	0	0	0.1	0	0	0
Cn1cc(C2=C(c3cn(C4CCN(Cc5ccccn5)CC4)c4ccccc34)C(=O)NC2=O)c2ccccc21 [Enzastaurin]	0.3	0	0	4.8	0	0	5.1	0.5	0.3	0	3.95	5	0	1.5	4.4	5.8
NS(=O)(=O)NCCNc1nonc1/C(=N/O)Nc1ccc(F)c(Br)c1 [Epacadostat]	0	0	0	0	0.9	0	0	0	0	0	0.1	0	0.1	0	0	0.4
C=C1C[C@@H]2[C@H](CC[C@]3(C)C(=O)CC[C@@H]23)[C@@]2(C)C=CC(=O)C=C12 [Exemestane]	0	0	0	0	0	0	0	0	0	0	0.35	0	0.4	0	0	0
O=C(Nc1nc2cccc(-c3ccc(CN4CCS(=O)(=O)CC4)cc3)n2n1)C1CC1 [Filgotinib]	0	3.9	0	2.6	5.2	1.9	3.3	0	5	0	3.1	0	1.3	0.4	2.9	6.1
CC(C)(C)NC(=O)[C@H]1CC[C@H]2[C@@H]3CC[C@H]4NC(=O)C=C[C@]4(C)[C@H]3CC[C@]12C [Finasteride]	0	0	0	0	0	0	0	0	0	0	1.1	0	0	0	0	0
Nc1nc(F)nc2c1ncn2[C@@H]1O[C@H](CO)[C@@H](O)[C@@H]1O [Fludarabine]	1.3	1.9	0	3	0	4.3	0	0	0	0	0	0	0.9	0.8	0.5	2
O=c1[nH]cc(F)c(=O)[nH]1 [Fluorouracil]	2.2	4.3	2.65	2.3	1.2	3.1	1	0	0	0	0.1	0	0	0	1.8	3.6
CC(C)C(=O)Nc1ccc([N+](=O)[O-])c(C(F)(F)F)c1 [Flutamide]	0	0	0.05	0	0	0	0	0	0	0	2.1	0	0	0	0	0
COc1cc2c(Oc3ccc(NC(=O)C4(C(=O)Nc5ccc(F)cc5)CC4)cc3F)ccnc2cc1OCCCN1CCOCC1 [Foretinib]	0.5	2.4	1.1	2.6	0	0.6	1.7	0	2.2	0.8	1.35	0.6	3.1	1.1	1.9	3.2
COc1cc(Nc2ncc(F)c(Nc3ccc4c(n3)N(COP(=O)(O)O)C(=O)C(C)(C)O4)n2)cc(OC)c1OC [Fostamatinib]	0.4	6.6	0	6.7	1.9	8.6	3.4	2.3	1.1	2.6	3.6	0	2.6	1.2	3.5	7.6
C[C@]12CC[C@@H]3c4ccc(O)cc4C[C@@H](CCCCCCCCC[S+]([O-])CCCC(F)(F)C(F)(F)F)[C@H]3[C@@H]1CC[C@@H]2O (stereo partly drawn) [Fulvestrant]	0	0	0	0	0	0	0	0	0	0	0	0	0	0	0	0
CNc1nc(Nc2cn(C(C)(C)C#N)nc2C)ncc1C(F)(F)F [GNE-0877]	0	0	0	0	0	0	0	0	0	0	0	0	0	0	0	0
CCNc1nc(Nc2cc(F)c(C(=O)N3CCOCC3)cc2OC)ncc1C(F)(F)F [GNE-7915]	0	0	0	0	2	0	0	0	0	0	0	0	0	0	0	1
CCCc1cc(C)[nH]c(=O)c1CNC(=O)c1cc(-c2ccnc(N3CCN(C)CC3)c2)cc2c1cnn2C(C)C [GSK343]	0	0.1	0	0	2	1.6	0.3	0	0	0	0.55	0	0	0.1	0	0
CCCOc1ccn2c(C(C)=O)cc(-c3ccccc3S(C)(=O)=O)c2c1 [GSK2801]	0	1.5	0	0	4.9	0	0	0	0	0	0	0	0	0	0.1	0
